Source: ChEMBL document CHEMBL6114998, “Design, Synthesis, and Pharmacological Evaluation of Quinazoline and Quinoline Derivatives as Potent ENPP1 Inhibitors for Cancer Immunotherapy” (J Med Chem, 2025)
pIC50: −log10 of the molar value. Calls of active or inactive are those of the source. No cut-off for these calls is given here.

How the values were obtained:
CT26 [1] = test: Antitumor activity against mouse CT26 cells allografted in female BALB/c mouse assessed as decrease in M2-type macrophages in tumor tissue at 200 mg/kg QD, ip in presence of anti-PD-L1 antibody measured every 2 days for 12 days by immunofluorescence analysis; assay type: functional, organism-based; details: time 12.0 day
THP-1 [2] = test: Activation of STING signalling pathway in human THP-1 cells assessed as increase in TBK1 phosphorylation at 300 nM preincubated with compound for 2 hrs followed by cGAMP addition and measured after 3 hrs by Western blot analysis; assay type: cell-based; details: filed as activator, time 5.0 hrs
[3] = Apparent permeability across apical to basal side in human Caco-2 cells at 10 uM by LC-MS/MS analysis; assay type: ADME, cell-based
CT26 [4] = test: Antitumor activity against mouse CT26 cells allografted in female BALB/c mouse assessed as tumor growth inhibition at 200 mg/kg QD, ip measured every 2 days for 12 days relative to control; assay type: functional; details: CT26, 288 h, time 12 day, read-out: TGI
[5] = Clearance in Sprague-Dawley rat at 10 mg/kg, iv measured upto 24 hrs by LC-MS/MS analysis; assay type: ADME, organism-based; details: in vivo
[6] = biological target: T1, Ectonucleotide pyrophosphatase/phosphodiesterase family member 1 (Homo sapiens, UniProt P22413); test: Inhibition of ENPP1 in human MDA-MB-231 cells using p-NPh-5TMP as substrate at pH 8.5 measured after 60 mins; assay type: cell-based
T1 sequence (P22413 whole entry): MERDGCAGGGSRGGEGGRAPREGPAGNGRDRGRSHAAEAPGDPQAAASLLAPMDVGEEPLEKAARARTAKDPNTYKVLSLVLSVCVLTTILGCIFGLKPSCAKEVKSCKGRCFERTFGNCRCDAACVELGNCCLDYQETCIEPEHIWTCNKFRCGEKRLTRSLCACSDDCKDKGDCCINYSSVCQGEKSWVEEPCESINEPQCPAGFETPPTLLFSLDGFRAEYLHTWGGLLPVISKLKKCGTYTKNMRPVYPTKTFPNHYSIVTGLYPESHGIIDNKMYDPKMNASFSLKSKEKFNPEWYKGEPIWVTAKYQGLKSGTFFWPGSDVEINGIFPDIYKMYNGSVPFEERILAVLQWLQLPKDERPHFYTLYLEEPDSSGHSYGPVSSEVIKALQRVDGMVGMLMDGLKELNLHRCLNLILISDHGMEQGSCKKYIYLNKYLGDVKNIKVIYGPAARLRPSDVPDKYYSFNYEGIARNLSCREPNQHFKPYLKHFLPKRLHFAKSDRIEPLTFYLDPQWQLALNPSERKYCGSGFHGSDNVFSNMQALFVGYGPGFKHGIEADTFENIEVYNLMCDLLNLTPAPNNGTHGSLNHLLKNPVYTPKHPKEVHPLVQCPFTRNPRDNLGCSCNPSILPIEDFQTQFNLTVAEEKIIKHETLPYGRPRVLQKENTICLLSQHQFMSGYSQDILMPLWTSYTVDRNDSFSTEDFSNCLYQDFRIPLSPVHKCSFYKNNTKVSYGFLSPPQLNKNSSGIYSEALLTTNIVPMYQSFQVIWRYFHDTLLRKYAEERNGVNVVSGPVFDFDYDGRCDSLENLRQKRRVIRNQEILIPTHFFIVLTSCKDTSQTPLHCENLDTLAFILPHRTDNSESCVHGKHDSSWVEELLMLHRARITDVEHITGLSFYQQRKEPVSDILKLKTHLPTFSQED

[7] = Apparent permeability across basal to apical side in human Caco-2 cells at 10 uM by LC-MS/MS analysis; assay type: ADME, cell-based
CT26 [8] = test: Antitumor activity against mouse CT26 cells allografted in female BALB/c mouse assessed as decrease in M2-type macrophages in tumor tissue at 200 mg/kg QD, ip measured every 2 days for 12 days by immunofluorescence analysis; assay type: functional, organism-based; details: time 12.0 day
[9] = biological target: Voltage-gated inwardly rectifying potassium channel KCNH2 (Homo sapiens, UniProt Q12809); test: Inhibition of hERG expressed in CHO cells by QPatch automated patch-clamp assay; assay type: toxicity, cell-based
THP-1 [10] = test: Activation of STING signalling pathway in human THP-1 cells assessed as increase in IRF3 phosphorylation at 300 nM preincubated with compound for 2 hrs followed by cGAMP addition and measured after 3 hrs by Western blot analysis; assay type: cell-based; details: filed as activator, time 5.0 hrs
CT26 [11] = test: Antitumor activity against mouse CT26 cells allografted in female BALB/c mouse assessed as increase in M1-type macrophages in tumor tissue at 200 mg/kg QD, ip in presence of anti-PD-L1 antibody measured every 2 days for 12 days by immunofluorescence analysis; assay type: functional, organism-based; details: time 12.0 day
CT26 [12] = test: Antitumor activity against mouse CT26 cells allografted in female BALB/c mouse assessed as increase in infiltration of CD8+T cells in tumor tissue at 200 mg/kg QD, ip in presence of anti-PD-L1 antibody measured every 2 days for 12 days by immunohistochemical analysis; assay type: functional, organism-based; details: time 12.0 day
Homo sapiens [13] = species on record: Homo sapiens; test: Inhibition of TLK (unknown origin) at 1 uM by KINOMEscan assay
CT26 [14] = test: Antitumor activity against mouse CT26 cells allografted in female BALB/c mouse assessed as increase in M1-type macrophages in tumor tissue at 200 mg/kg QD, ip in presence of anti-PD-L1 antibody measured every 2 days for 12 days by immunohistochemical analysis; assay type: functional, organism-based; details: time 12.0 day
[15] = Inhibition of TK (unknown origin) at 1 uM by KINOMEscan assay; details: Homo sapiens
CT26 [16] = test: Antitumor activity against mouse CT26 cells allografted in female BALB/c mouse plasma assessed as increase in IP-10 secretion in tumor tissue at 200 mg/kg QD, ip in presence of anti-PD-L1 antibody measured every 2 days for 12 days by ELISA analysis; assay type: functional, organism-based; details: time 12.0 day
THP1-Dual KO-STING = test: Cytotoxicity against human THP1-Dual KO-STING cells assessed as effect on cell viability at 1 uM followed by addition of conditioned medium containing 36 hrs compound pretreated human MDA-MB-231 cells measured after 24 hrs by celltiter-glo assay; assay type: functional, cell-based; details: time 60.0 hrs
THP1-Dual = test: Activation of STING-mediated immune response in human THP1-Dual cells assessed as increase in cGAMP-induced ISRE activation preincubated in conditioned medium containing 36 hrs compound treated with human MDA-MB-231 cells measured after 24 hrs by quanti-luc luciferase assay; assay type: cell-based; details: filed as activator, time 60.0 hrs
CT26 [17] = test: Antitumor activity against mouse CT26 cells allografted in female BALB/c mouse assessed as increase in CD8+T cells in tumor tissue at 200 mg/kg QD, ip measured every 2 days for 12 days by immunofluorescence analysis; assay type: functional, organism-based; details: time 12.0 day
[18] = Cmax in Sprague-Dawley rat at 10 mg/kg, iv measured upto 24 hrs by LC-MS/MS analysis; assay type: ADME, organism-based; details: in vivo
[19] = Efflux ratio of apparent permeability from basolateral to apical side over apical to basolateral side in human Caco-2 cells at 10 uM by LC-MS/MS analysis; assay type: ADME, cell-based
CT26 [20] = test: Antitumor activity against mouse CT26 cells allografted in female BALB/c mouse assessed as tumor growth inhibition at 200 mg/kg QD, ip measured every 2 days for 12 days in presence of anti-PD-L1 antibody relative to control; assay type: functional; details: CT26, 288 h, time 12 day, read-out: TGI
Homo sapiens [21] = species on record: Homo sapiens; test: Inhibition of STE (unknown origin) at 1 uM by KINOMEscan assay

Chain of Voltage-gated inwardly rectifying potassium channel KCNH2 (Q12809 whole entry): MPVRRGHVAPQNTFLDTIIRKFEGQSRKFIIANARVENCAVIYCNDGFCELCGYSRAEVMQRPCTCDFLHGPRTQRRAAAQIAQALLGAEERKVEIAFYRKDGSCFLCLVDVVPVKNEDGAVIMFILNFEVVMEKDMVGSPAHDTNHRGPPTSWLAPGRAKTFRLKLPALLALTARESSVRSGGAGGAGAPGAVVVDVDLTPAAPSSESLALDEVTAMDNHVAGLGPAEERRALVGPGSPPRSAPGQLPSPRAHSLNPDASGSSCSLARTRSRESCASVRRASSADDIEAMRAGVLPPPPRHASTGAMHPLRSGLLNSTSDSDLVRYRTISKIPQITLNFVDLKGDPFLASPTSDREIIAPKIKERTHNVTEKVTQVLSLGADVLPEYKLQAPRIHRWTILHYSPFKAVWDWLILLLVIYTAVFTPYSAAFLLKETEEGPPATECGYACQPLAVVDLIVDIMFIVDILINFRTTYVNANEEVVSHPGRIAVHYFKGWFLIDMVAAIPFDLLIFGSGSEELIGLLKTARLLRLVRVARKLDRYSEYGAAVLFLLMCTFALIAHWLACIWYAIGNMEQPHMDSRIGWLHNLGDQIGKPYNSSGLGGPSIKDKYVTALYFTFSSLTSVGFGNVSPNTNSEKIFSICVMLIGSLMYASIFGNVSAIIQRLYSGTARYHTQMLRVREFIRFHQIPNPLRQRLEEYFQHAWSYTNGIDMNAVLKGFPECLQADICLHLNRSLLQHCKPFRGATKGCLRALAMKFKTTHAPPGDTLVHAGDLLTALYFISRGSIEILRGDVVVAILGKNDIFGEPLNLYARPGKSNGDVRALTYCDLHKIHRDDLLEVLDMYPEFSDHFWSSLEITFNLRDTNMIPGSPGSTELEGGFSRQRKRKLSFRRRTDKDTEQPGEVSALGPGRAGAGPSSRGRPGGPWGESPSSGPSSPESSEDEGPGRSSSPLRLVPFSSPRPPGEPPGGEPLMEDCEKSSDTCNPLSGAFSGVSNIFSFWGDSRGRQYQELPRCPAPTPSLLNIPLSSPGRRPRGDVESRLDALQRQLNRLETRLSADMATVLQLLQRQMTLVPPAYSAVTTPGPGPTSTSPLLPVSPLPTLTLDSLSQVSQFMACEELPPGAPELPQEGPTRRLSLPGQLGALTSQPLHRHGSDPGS

**Q.** With COc1cccc2c(N3CCC(O)(CNS(N)(=O)=O)CC3)ncnc12 as the compound, how does the Activity (CT26 [1]) read?
**A.** Active

**Q.** And the Activity (THP-1 [2])?
**A.** Active

**Q.** What about the Papp A→B at 10 µM [3] of the same compound?
**A.** 0.106 ×10⁻⁶ cm/s

**Q.** What about the inhibition in vivo at 200 mg/kg (CT26 [4]) of the same compound?
**A.** 39.9%

**Q.** What about the clearance [5] of the same compound?
**A.** 84.5 mL/min/kg

**Q.** And the pIC50 [6]?
**A.** 7.38

**Q.** What about the Papp B→A at 10 µM [7] of the same compound?
**A.** 2.13 ×10⁻⁶ cm/s

**Q.** What about the Activity (CT26 [8]) of the same compound?
**A.** Active

**Q.** What about the pIC50 [9] of the same compound?
**A.** < 4.40

**Q.** And the Activity (THP-1 [10])?
**A.** Active

**Q.** What about the Activity (CT26 [11]) of the same compound?
**A.** Active

**Q.** And the Activity (CT26 [12])?
**A.** Active

**Q.** And the inhibition (Homo sapiens [13])?
**A.** inactive

**Q.** What about the Activity (CT26 [14]) of the same compound?
**A.** Active

**Q.** What about the inhibition [15] of the same compound?
**A.** inactive

**Q.** And the Activity (CT26 [16])?
**A.** Active

**Q.** What about the Activity (THP1-Dual KO-STING) of the same compound?
**A.** Active

**Q.** And the Activity (THP1-Dual)?
**A.** Dose-dependent-effect

**Q.** And the Activity (CT26 [17])?
**A.** Active

**Q.** What about the Cmax [18] of the same compound?
**A.** 3220 ng/mL

**Q.** And the efflux ratio at 10 µM [19]?
**A.** 20.1

**Q.** What about the inhibition in vivo at 200 mg/kg (CT26 [20]) of the same compound?
**A.** 64.6%

**Q.** And the inhibition (Homo sapiens [21])?
**A.** inactive
